Results as given in patent publication US20160295860A1, “A NOVEL COMPOSITION AND METHOD OF USE TO CONTROL PATHOGENS AND PREVENT DISEASES IN SEEDS” (AGRI-NÉO INC., priority 2013, published 2016).

Columns and labels:
Y&M (yeast, mold) = experiment: Yeast and mold (Y&M) count on seeds, grains and spices sprayed with sanitizing solutions; type: cell-based; conditions: for Y&M, n1: replicate n1; for Y&M, n2: replicate n2
Procedure: (§1) Seeds were mechanically cleaned and spread in stainless steel containers. Each 100 grams seeds were sprayed with 4 ml total solutions descried above via conventional trigger vaporizer. This solution is equivalent to 40 L disinfecting solution total sprayed on 1-ton seeds. Seeds, grains and spices were selected to represent all families and types of seeds, grains and spices. Another criteria was to select seeds and grains contaminated with a high count of total aerobic bacteria, yeast, mold, E. coli, Salmonella sp. and other pathogenic microorganisms.
(§2) Seeds, grains and spices treated were: • Whole dried pea, • Split pea dried, • Pea fiber, • Vanilla, • Chia, • Sprouted flax and chia, • Flax, • Hemp, and • Black pepper seeds

[1] = system: Total count Aerobic bacteria; experiment: Total aerobic count on seeds, grains and spices sprayed with sanitizing solutions; type: cell-based
Procedure: as §1, §2

[2] = Whole dried pea, 40 L per 1 ton
[3] = Whole split pea, 40 L per 1 ton

Structure (SMILES) | Y&M, Av (Y&M (yeast, mold); Pea fiber) | Y&M, n1 (Y&M (yeast, mold); Pea fiber) | Y&M, n2 (Y&M (yeast, mold); Pea fiber) | Y&M, Av (Y&M (yeast, mold); Whole dried pea) | Y&M, n1 (Y&M (yeast, mold); Whole dried pea) | Y&M, n2 (Y&M (yeast, mold); Whole dried pea) | Y&M, Av (Y&M (yeast, mold); Whole split pea) | Y&M, n1 (Y&M (yeast, mold); Whole split pea) | Y&M, n2 (Y&M (yeast, mold); Whole split pea) | Conclusion in words on bactericidal efficacy ([1]; Black pepper, 40 L per 1 ton) | Conclusion in words on bactericidal efficacy ([1]; Hemp, 40 L per 1 ton) | Conclusion in words on bactericidal efficacy ([1]; Pea fiber, 40 L per 1 ton) | Conclusion in words on bactericidal efficacy ([1]; Sprouted flax and chia) | Conclusion in words on bactericidal efficacy ([1]; Vanilla, 40 L per 1 ton) | Conclusion in words on bactericidal efficacy [1, 2] | Conclusion in words on bactericidal efficacy [1, 3]
CCO [2- Alcohol - ethanol, ethanol] | Y&M not detected | n1, n2 not detected | n1, n2 not detected | Y&M not detected | n1, n2 not detected | n1, n2 not detected | Y&M not detected | n1, n2 not detected | n1, n2 not detected | not a strong bactericidal agent | not a strong bactericidal agent | not a strong bactericidal agent | bactericidal agent but not very strong | not a strong bactericidal agent | not a strong bactericidal agent | not a strong bactericidal agent
CC(=O)OO [Peracetic acid] |  |  |  |  |  |  |  |  |  | strong bactericidal agent | strong bactericidal agent | strong bactericidal agent |  | strong bactericidal agent | strong bactericidal agent | strong bactericidal agent
